Data published in patent EP0394122A2, “Use of tetracyclines to manufacture a medicament for the treatment and prevention of AIDS” (priority 1989, dated 1990).

Experiments:
[1] = system: virus HIV (LAV-1-BRU); assay: Protection against the cytopathogenic effect of HIV in infected CEM clone 13 cells (MTT viability); type: cell-based; conditions: day 7
Protocol: (§1) Le test est réalisé sur la lignée lymphoblastoïde CEM clone 13. Dans une microplaque de 96 puits on dépose 25 µl/puits d'une solution de produit à tester ou de tampon phosphate isotonique (TPI) dans le cas des contrôles. Les produits sont étudiés à différentes concentrations (souvent 8), à raison de 4 puits par concentration. On ajoute alors 125 µl d'une suspension de cellules CEM dans le milieu RPMI contenant 10 % de sérum de veau foetal, 40 U/ml de pénicilline, 40 µg/ml de streptomycine et 5 µg/ml de polybrène (3500 cellules par puits) et les microplaques sont incubées une heure à 37°C, sous une atmosphère contenant 5 % de gaz carbonique. Pour chaque concentration, l'essai est partagé en 2 parties : une partie sur cellules infectées, pour la détermination de l'activité antivirale et l'autre partie sur cellules non infectées, pour déterminer la cytotoxicité des produits. On infecte alors la première série avec HIV (100 µl par puit d'une suspension de virus LAV-1-BRU contenant 200-300 TCID50) tandis que l'autre série reçoit 100 µl de milieu RPMI tel que défini précédemment. Au bout de 7 jours d'incubation, 175 µl de surnageant sont prélevés et rejetés. La viabilité cellulaire est déterminée selon une modification de la technique décrite par R. Pauwels et coll., J. Virol. Meth., 20, 309-321 (1988).
(§2) Les puits, contenant encore les cellules (infectées ou non infectées), reçoivent 10 µl d'une solution de MTT (méthylthiazoletétrazolium) à 5 mg/ml dans du tampon phosphate isotonique. Pendant une période d'incubation de 4 heures, le MTT est converti en un sel de formazan (bleu) à l'intérieur des cellules vivantes et proportionnellement à leur nombre, alors que rien n'apparaît dans les puits ne contenant plus que des cellules mortes. On ajoute alors 120 µl d'isopropanol (contenant 0,04 mole/l d'acide chlorhydrique) et les microplaques sont agitées jusqu'à la solubilisation du bleu de formazan. L'absorption à 540 nm est lue avec un lecteur automatique de réactions ELISA en microplaques.
(§3) Pour les essais de plus longue durée, on procède comme décrit précédemment jusqu'au jour 7. A ce moment, 100 µl de cellules sont prélevés pour mesurer la proportion de cellules vivantes et le restant est remis en culture avec du milieu frais contenant les produits aux mêmes concentrations. Cette opération est répétée tous les 4 jours.

[2] = system: lignée lymphoblastoïde CEM clone 13; assay: Cytotoxicity on non-infected CEM clone 13 cells (MTT viability); type: cell-based, humaines; conditions: day 7
Protocol: as §1, with “Dans” for “Le test est réalisé sur la lignée lymphoblastoïde CEM clone 13. Dans”, “Virol.” for “Virol. Meth., 20, 309-321 (1988).”
as §2, §3

Compound	Cellules infectées Densité optique ([1]; 0,01 µg/ml)	Cellules infectées Densité optique ([1]; 0,04 µg/ml)	Cellules infectées Densité optique ([1]; 0,12 µg/ml)	Cellules infectées Densité optique ([1]; 0,37 µg/ml)	Cellules infectées Densité optique ([1]; 10 µg/ml)	Cellules infectées Densité optique ([1]; 30 µg/ml)	Cellules infectées Densité optique ([1]; 1,11 µg/ml)	Cellules infectées Densité optique ([1]; 3,33 µg/ml)	Cellules non infectées Densité optique ([2]; 0,01 µg/ml)	Cellules non infectées Densité optique ([2]; 0,04 µg/ml)	Cellules non infectées Densité optique ([2]; 0,12 µg/ml)	Cellules non infectées Densité optique ([2]; 0,37 µg/ml)	Cellules non infectées Densité optique ([2]; 10 µg/ml)	Cellules non infectées Densité optique ([2]; 30 µg/ml)	Cellules non infectées Densité optique ([2]; 1,11 µg/ml)	Cellules non infectées Densité optique ([2]; 3,33 µg/ml)	other results
CN(C)C1C(=O)C(C(N)=O)=C(O)C2(O)C(=O)C3=C(O)c4c(O)cccc4C(C)(O)C3CC12 (stereo not drawn) [Exemple 1, tétracycline]																	Cellules infectées Densité optique ([1]; 0,03 µg/ml): 0,350; Cellules infectées Densité optique ([1]; 0,08 µg/ml): 0,350; Cellules infectées Densité optique ([1]; 0,25 µg/ml): 0,340; Cellules infectées Densité optique ([1]; 0,74 µg/ml): 0,420; Cellules infectées Densité optique ([1]; 20 µg/ml): 0,400; Cellules infectées Densité optique ([1]; 60 µg/ml): 0,1; Cellules infectées Densité optique ([1]; 2,22 µg/ml): 0,510; Cellules infectées Densité optique ([1]; 6,67 µg/ml): 0,620; Cellules non infectées Densité optique ([2]; 0,03 µg/ml): 1,025; Cellules non infectées Densité optique ([2]; 0,08 µg/ml): 1,080; Cellules non infectées Densité optique ([2]; 0,25 µg/ml): 1,050; Cellules non infectées Densité optique ([2]; 0,74 µg/ml): 1,100; Cellules non infectées Densité optique ([2]; 20 µg/ml): 0,460; Cellules non infectées Densité optique ([2]; 60 µg/ml): 0,1; Cellules non infectées Densité optique ([2]; 2,22 µg/ml): 1,040; Cellules non infectées Densité optique ([2]; 6,67 µg/ml): 0,900
C=C1c2cccc(O)c2C(O)=C2C(=O)C3(O)C(O)=C(C(N)=O)C(=O)C(N(C)C)C3C(O)C12 (stereo not drawn) [Exemple 3, métacycline]	0,570	0,640	0,680	0,730	0,770	0,1	0,780	1,060	1,100	1,380	1,300	1,230	0,960	0,1	1,180	1,320	
lymecycline [Exemple 4]	0,75	1,25	1,21	1,20	1,55	1,05	1,28	1,40	1,75	1,80	1,90	1,75	1,85	1,05	1,80	1,85	
